The target in the assay is Poly(ADP-ribose) glycohydrolase (Homo sapiens, UniProt Q86W56). Description: Inhibition of human full length PARG using Bt-NAD ribosylated PARP1 substrate after 10 mins by TR-FRET assay. (Time-resolved FRET reads energy transfer from a long-lived donor to a nearby acceptor.)

The structures appear in SMILES notation. Bounds are passed on as bounds.

Sequence of Poly(ADP-ribose) glycohydrolase (Q86W56 whole entry): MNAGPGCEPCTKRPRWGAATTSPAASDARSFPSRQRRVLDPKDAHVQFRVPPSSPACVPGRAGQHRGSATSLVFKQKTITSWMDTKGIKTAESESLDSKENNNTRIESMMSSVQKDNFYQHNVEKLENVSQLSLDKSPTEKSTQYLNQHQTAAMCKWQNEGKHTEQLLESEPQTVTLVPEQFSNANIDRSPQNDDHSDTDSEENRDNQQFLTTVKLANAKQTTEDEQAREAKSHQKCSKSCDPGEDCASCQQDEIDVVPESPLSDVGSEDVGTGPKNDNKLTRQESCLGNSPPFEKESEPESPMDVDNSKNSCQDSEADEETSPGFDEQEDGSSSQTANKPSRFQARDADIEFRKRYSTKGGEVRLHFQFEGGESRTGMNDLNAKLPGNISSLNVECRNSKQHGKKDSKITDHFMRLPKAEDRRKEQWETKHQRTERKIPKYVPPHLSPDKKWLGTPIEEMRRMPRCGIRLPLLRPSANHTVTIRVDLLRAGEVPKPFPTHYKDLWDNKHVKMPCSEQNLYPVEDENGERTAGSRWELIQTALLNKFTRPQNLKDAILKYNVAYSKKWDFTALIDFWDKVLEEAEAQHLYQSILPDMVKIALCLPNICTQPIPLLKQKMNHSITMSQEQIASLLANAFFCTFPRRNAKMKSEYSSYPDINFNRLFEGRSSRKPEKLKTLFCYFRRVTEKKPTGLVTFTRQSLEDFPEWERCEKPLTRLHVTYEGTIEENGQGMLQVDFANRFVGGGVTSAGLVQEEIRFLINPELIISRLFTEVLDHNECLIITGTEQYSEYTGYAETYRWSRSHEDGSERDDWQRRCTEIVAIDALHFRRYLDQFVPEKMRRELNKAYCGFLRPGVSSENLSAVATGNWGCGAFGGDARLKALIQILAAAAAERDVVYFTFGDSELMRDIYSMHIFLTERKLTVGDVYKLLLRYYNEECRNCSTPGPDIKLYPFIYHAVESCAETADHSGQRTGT

The EC50 is the concentration needed to bring the measured effect to its halfway point. The low end stands for an effect from little substance, the high end for a need for much substance. For the compound `O=c1[nH]c2ccc(S(=O)(=O)NC3CC3)cc2c2ccccc12`, the EC50 came to 50 µM.
The value for `CCNS(=O)(=O)c1ccc2c(c1)c(=O)n(CC)c(=O)n2CC` was 140 µM.
In the case of `Cn1c(=O)c2cc(S(=O)(=O)NC3(C)CC3)ccc2n(Cc2ccc(F)cc2)c1=O` it was 0.53 µM.
The value for `Cn1c(=O)n(CC2CCCCC2)c(=O)c2cc(S(=O)(=O)NC3(C)CC3)ccc21` was > 150 µM; that for `Cn1c(=O)c2cc(S(=O)(=O)NC3(C)CC3)ccc2n(Cc2cccnc2)c1=O` was 1.3 µM; that for `Cn1c(=O)n(Cc2ccccn2)c(=O)c2cc(S(=O)(=O)NC3(C)CC3)ccc21` was 16 µM.
`O=C1c2ccccc2C(=O)c2cc(S(=O)(=O)NCC3CC3)ccc21` yielded an EC50 of 24 µM.
The value for `NC(=O)CCNS(=O)(=O)c1ccc2c(c1)C(=O)c1ccccc1C2=O` was > 150 µM; that for `Cn1c(=O)c2cc(S(=O)(=O)NC(C)(C)C)ccc2n(C)c1=O` was 110 µM.
In the case of `CNS(=O)(=O)c1ccc2c(c1)C(=O)c1ccccc1C2=O` it was > 30 µM.
The value for `Cn1c(=O)c2cc(S(=O)(=O)NC3(C)CC3)ccc2n(Cc2ccccc2F)c1=O` was 1.4 µM; that for `Cn1nccc1Cn1c(=O)n(C)c(=O)c2cc(S(=O)(=O)NC3(C)CC3)ccc21` was 1.2 µM.
Regarding `COc1ccc(Cn2c(=O)n(C)c(=O)c3cc(S(=O)(=O)NC4(C)CC4)ccc32)cc1`, a half-maximal effect (EC50) was put at 0.45 µM.
In the case of `COCCNS(=O)(=O)c1ccc2c(c1)C(=O)c1ccccc1C2=O`, the 50% effective concentration (EC50) is > 150 µM.
The compound `Cc1nc(C)c(Cn2c(=O)n(C)c(=O)c3cc(S(=O)(=O)NC4(C)CC4)ccc32)s1` showed an EC50 of 0.18 µM.
In turn, `COc1ccccc1Cn1c(=O)n(C)c(=O)c2cc(S(=O)(=O)NC3(C)CC3)ccc21` returned an EC50 of 3.2 µM.
In the case of `Cn1c(=O)n(CC2CC2)c(=O)c2cc(S(=O)(=O)NC3(C)CC3)ccc21` it was 4.6 µM; in that of `Cn1c(=O)c2cc(S(=O)(=O)NC3(C)CC3)ccc2n(Cc2ccncc2)c1=O`, 2.4 µM.
In the case of `Cn1c(=O)n(Cc2ccccc2)c(=O)c2cc(S(=O)(=O)NC3(C)CC3)ccc21` it was 26 µM; in that of `Cn1c(=O)n(Cc2cccnc2)c(=O)c2cc(S(=O)(=O)NC3(C)CC3)ccc21`, 2.5 µM; in that of `N#CCCNS(=O)(=O)c1ccc2c(c1)C(=O)c1ccccc1C2=O`, 88 µM.
The value for `CCNS(=O)(=O)c1ccc2c(c1)C(=O)c1ccccc1C2=O` was 110 µM; that for `NC(=O)CNS(=O)(=O)c1ccc2c(c1)C(=O)c1ccccc1C2=O` was > 150 µM.
Turning to `O=C1c2ccccc2C(=O)c2cc(S(=O)(=O)NCCO)ccc21`, the EC50 was > 150 µM.
In the case of `Cn1c(=O)c2cc(S(=O)(=O)NC3CC3)ccc2n(C)c1=O` it was 11 µM; in that of `Cn1c(=O)c2cc(S(=O)(=O)NC3(C)CC3)ccc2n(Cc2cccc(F)c2)c1=O`, 1.6 µM.
In turn, `Cn1c(=O)n(-c2ccccc2)c(=O)c2cc(S(=O)(=O)NC3(C)CC3)ccc21` had an EC50 of 23 µM.
On to `Cn1c(=O)c2cc(S(=O)(=O)NC3(C)CC3)ccc2n(Cc2ccccn2)c1=O`, for which the midpoint of the response, the EC50, lay at 5.8 µM. This EC50 lies about 4-fold lower than the previous one.
The value for `CCNS(=O)(=O)c1ccc2c(c1)c(=O)n(C)c(=O)n2C` was > 150 µM; that for `O=C1c2ccccc2C(=O)c2cc(S(=O)(=O)NC3CCC3)ccc21` was > 50 µM; that for `Cc1cc(Cn2c(=O)n(C)c(=O)c3cc(S(=O)(=O)NC4(C)CC4)ccc32)n(C)n1` was 0.38 µM.
The value for `COc1cccc(Cn2c(=O)n(C)c(=O)c3cc(S(=O)(=O)NC4(C)CC4)ccc32)c1` was 0.86 µM; that for `CCn1c(=O)c2cc(S(=O)(=O)NC3(C)CC3)ccc2n(C)c1=O` was 4 µM.
In the case of `COCC(C)(C)NS(=O)(=O)c1ccc2c(c1)C(=O)c1ccccc1C2=O` it was > 150 µM; in that of `Cn1c(=O)n(Cc2ccncc2)c(=O)c2cc(S(=O)(=O)NC3(C)CC3)ccc21`, 8 µM.
With `CCC(C)(C)NS(=O)(=O)c1ccc2c(c1)C(=O)c1ccccc1C2=O`, the concentration for a half-maximal effect (EC50) was 49 µM. This EC50 is about 6.1-fold higher than that of the compound before.

For the origin of these results see ChEMBL document CHEMBL4261639, “Cell-Active Small Molecule Inhibitors of the DNA-Damage Repair Enzyme Poly(ADP-ribose) Glycohydrolase (PARG): Discovery and Optimization of Orally Bioavailable Quinazolinedione Sulfonamides” (J Med Chem, 2018).
